Laboratory results: patent publication US6613323B2 (priority 2000, dated 2003)

Test system: Magnaporthe grisea
Assay type: cell-based

## OCCCCCCCCCCCCCCCCO [1,16-hexadecanediol]
In the presence of recombinant PepEST
  effectiveness in inducing appressorium formation compared with cAMP: much more effective than cAMP
Spores treated in the presence of recombinant PepEST, cAMP 10 mM, 1,16-hexadecanediol 0.01 mM
  reversal of the inhibition of appressorium formation by the recombinant protein: reversible
